Assay results as given in patent publication US20150265691A1 (priority 2006, published 2015).

System: rabbit anti-B. anthracis spore polyclonal IgG antibodies
Format: binding

Compound | IgG signal detected by glycan arrays (n = 3) Mean
C[C@H](O)[C@H](O)[C@@H](O)[C@@H](O)C=O [Saccharide 6, L-Rhamnose] | 1.03
C[C@@H](O)[C@H](O)[C@H](O)[C@@H](O)C=O [Saccharide 7, D-Fucose] | 1.88
O=C[C@H](O)[C@@H](O)[C@@H](O)[C@H](O)CO [Saccharide 8, D-Galactose] | 1.06
O=C[C@H](O)[C@@H](O)[C@H](O)[C@H](O)CO [Saccharide 9, D-Glucose] | 1.04
O=C[C@@H](O)[C@@H](O)[C@H](O)[C@H](O)CO [Saccharide 10, D-Mannose] | 1.03
CC(=O)N[C@@H](C=O)[C@@H](O)[C@@H](O)[C@H](O)CO [Saccharide 11, N-acetyl-2-amino-2-deoxy-D-galactose] | 1.03
O=C[C@H](O)[C@@H](O)[C@@H](O)CO [Saccharide 12, L-Arabinose] | 1.03
O=C[C@H](O)[C@H](O)[C@@H](O)[C@@H](O)CO [Saccharide 13, L-Mannose] | 1.06
COC(=O)CCCCCO[C@@H]1O[C@@H](C)[C@H](O)[C@@H](O)[C@H]1O [Saccharide 14, 5-(Methoxycarbonyl)pentyl α-L-rhamnopyranoside] | 0.97
COC(=O)CCCCCO[C@H]1O[C@@H](C)[C@H](O)[C@@H](O)[C@H]1O [Saccharide 15, 5-(Methoxycarbonyl)pentyl β-L-rhamnopyranoside] | 0.95
COC(=O)CCCCCO[C@@H]1O[C@@H](C)[C@H](O)[C@@H](O[C@@H]2O[C@@H](C)[C@H](O)[C@@H](O)[C@H]2O)[C@H]1O [Saccharide 16, 5-(Methoxycarbonyl)pentyl α-L-rhamnopyranosyl-(1→3)-α-L-rhamnopyranoside] | 1.00
COC(=O)CCCCCO[C@@H]1O[C@@H](C)[C@H](O)[C@@H](O)[C@H]1O[C@@H]1O[C@@H](C)[C@H](O)[C@@H](O)[C@H]1O [Saccharide 18, 5-(Methoxycarbonyl)pentyl α-L-rhamnopyranosyl-(1→2)-α-L-rhamnopyranoside] | 1.26
COC(=O)CCCCCO[C@H]1O[C@@H](C)[C@H](O)[C@@H](O)[C@H]1O[C@@H]1O[C@@H](C)[C@H](O)[C@@H](O)[C@H]1O [Saccharide 19, 5-(Methoxycarbonyl)pentyl α-L-rhamnopyranosyl-(1→2)-β-L-rhamnopyranoside] | 0.98
COC(=O)CCCCCO[C@H]1O[C@@H](C)[C@H](O)[C@@H](O)[C@H]1O[C@@H]1O[C@@H](C)[C@H](O)[C@@H](O[C@@H]2O[C@@H](C)[C@H](O)[C@@H](O)[C@H]2O)[C@H]1O [Saccharide 20, 5-(Methoxycarbonyl)pentyl α-L-rhamnopyranosyl-(1→3)-α-L-rhamnopyranosyl-(1→2)-β-L-rhamnopyranoside] | 0.95
CO[C@H]1O[C@H](CO)[C@H](O)[C@H](O)[C@H]1O[C@@H]1O[C@@H](C)[C@H](O)[C@@H](O)[C@H]1O [Saccharide 21, Methyl <-L-rhamnopyranosyl-(1→2)-<-D-galactopyranoside, reference compound] | 1.08
CO[C@H]1O[C@H](CO)[C@H](O)[C@H](O)[C@H]1O[C@@H]1O[C@@H](C)[C@H](O)[C@@H](O[C@@H]2O[C@@H](C)[C@H](O)[C@@H](O[C@H]3O[C@H](CO)[C@@H](O)[C@H](O)[C@H]3NC(C)=O)[C@H]2O)[C@H]1O [Saccharide 22, Methyl 2-acetamido-2-deoxy-<-D-glucopyranosyl-(1→3)-<-L-rhamnopyranosyl-(1→3)-<-L-rhamnopyranosyl-(1→2)-<-D-galactopyranoside, reference compound] | 0.95
CO[C@H]1O[C@H](CO)[C@@H](O)[C@H](O[C@H]2O[C@H](CO)[C@H](O)[C@H](O)[C@H]2O[C@@H]2O[C@@H](C)[C@H](O)[C@@H](O)[C@H]2O)[C@H]1NC(C)=O [Saccharide 23, Methyl <-L-rhamnopyranosyl-(1→2)-<-D-galactopyranosyl-(1→3)-2-acetamido-2-deoxy-<-D-glucopyranoside] | 1.01
CO[C@@H]1O[C@@H](C)[C@H](O)[C@@H](O[C@@H]2O[C@@H](C)[C@H](O)[C@@H](O)[C@H]2O)[C@H]1O [Saccharide 24, Methyl <-L-rhamnopyranosyl-(1→3)-<-L-rhamnopyranoside, reference compound] | 1.02
CO[C@H]1O[C@H](CO)[C@H](O)[C@H](O)[C@H]1O[C@@H]1O[C@@H](C)[C@H](O)[C@@H](O[C@@H]2O[C@@H](C)[C@H](O)[C@@H](O)[C@H]2O)[C@H]1O [Saccharide 25, Methyl <-L-rhamnopyranosyl-(1→3)-<-L-rhamnopyranosyl-(1→2)-<-D-galactopyranoside, reference compound] | 1.02
CO[C@H]1O[C@H](CO)[C@@H](O)[C@H](O[C@H]2O[C@H](CO)[C@H](O)[C@H](O)[C@H]2O[C@@H]2O[C@@H](C)[C@H](O)[C@@H](O[C@@H]3O[C@@H](C)[C@H](O)[C@@H](O)[C@H]3O)[C@H]2O)[C@H]1NC(C)=O [Saccharide 26, Methyl <-L-rhamnopyranosyl-(1→3)-<-L-rhamnopyranosyl-(1→2)-<-D-galactopyranosyl-(1→3)-2-acetamido-2-deoxy-<-D-glucopyranoside] | 1.01
CO[C@H]1O[C@H](C)[C@@H](NC(=O)[C@@H](O)CCO)[C@H](O)[C@@H]1O[C@H]1O[C@H](C)[C@@H](NC(=O)[C@@H](O)CCO)[C@H](O)[C@@H]1O[C@H]1O[C@H](C)[C@@H](NC(=O)[C@@H](O)CCO)[C@H](O)[C@@H]1OC [Saccharide 27, Methyl 2-O-methyl-4,6-dideoxy-4-(3-deoxy-L-glycero-tetronamido)-<-D-mannopyranosyl-(1→2)-4,6-dideoxy-4-(3-deoxy-L-glycero-tetronamido)-<-D-mannopyranosyl-(1→2)-4,6-dideoxy-4-(3-deoxy-L-glycero-tetronamido)-<-D-mannopyranoside] | 1.01
CO[C@H]1O[C@H](C)[C@@H](NC(=O)[C@@H](O)CCO)[C@H](O)[C@@H]1O[C@H]1O[C@H](C)[C@@H](NC(=O)[C@@H](O)CCO)[C@H](O)[C@@H]1O[C@H]1O[C@H](C)[C@@H](NC(=O)[C@@H](O)CCO)[C@H](O)[C@@H]1O[C@H]1O[C@H](C)[C@@H](NC(=O)[C@@H](O)CCO)[C@H](O)[C@@H]1OC [Saccharide 28, Methyl 2-O-methyl-4,6-dideoxy-4-(3-deoxy-L-glycero-tetronamido)-<-D-mannopyranosyl-(1→2)-bis-[4,6-dideoxy-4-(3-deoxy-L-glycero-tetronamido)-<-D-mannopyranosyl-(1→2)]-4,6-dideoxy-4-(3-deoxy-L-glycero-tetronamido)-<-D-mannopyranoside] | 1.07
Methyl 2-O-methyl-4,6-dideoxy-4-(3-deoxy-L-glycero-tetronamido)-<-D-mannopyranosyl-(1→2)-tetrakis[4,6-dideoxy-4-(3-deoxy-L-glycero-tetronamido)-<-D-mannopyranosyl-(1→2)]-4,6-dideoxy-4-(3-deoxy-L-glycero-tetronamido)-<-D-mannopyranoside [Saccharide 30] | 1.67
